Data taken from patent US20260263452A1, “ONCOLOGY COMBINATION THERAPY AND METHODS OF USE” (BeyondSpring Pharmaceuticals, Inc., priority 2023, published 2026).

System: MDA-MB-231 human breast cancer
Experiment: MDA-MB-231 human breast cancer SubQ xenograft model in BALB/c nude mice
Type: in vivo
Settings: Day 38, abemaciclib 50 mg/kg PO QD, plinabulin 7.5 mg/kg IP BIW; for mean tumor volume: n=8 per group, vehicle control 1235±24 mm^3
Protocol: The anti-tumor activity of plinabulin as a single agent compared to co-administration with abemaciclib was evaluated in an MDA-MB-231 human breast cancer SubQ xenograft model in BALB/c nude mice. Plinabulin was provided as a 4 mg/mL solution in 40% Solutol, 60% Propylene Glycol. […] Abemaciclib was provided as a crystalline solid. Prior to dosing, an appropriate amount of abemaciclib solid was weighed out and dissolved in 1% hydroxyethyl cellulose in 25 mM phosphate buffer, pH=2, to a concentration of 5 mg/mL to deliver a dose of 50 mg/kg in a 10 mL/kg dosing volume. […] The vehicle control was dosed intraperitoneally at a 10 mL/kg dose volume. The MDA-MB-231 human breast tumor cell line was maintained in L-15 medium supplemented with 10% FBS at 37° C. in an atmosphere of 100% air. Cells were sub-cultured upon reaching about 90% confluence by trypsin-EDTA treatment. Cells in an exponential growth phase were harvested using a trypsin-EDTA mixture. Female BALB/c nude mice were received at 6-8 weeks of age. All mice were acclimated for 7 days prior to study initiation. The mice were housed in housed in polycarbonate cages and maintained under specific pathogen-free conditions. The mice were fed irradiated dry granule food and sterile drinking water was freely available. Mice were inoculated subcutaneously on the right flank with 0.1 mL of L-15 medium/Martigel (1:1) mixture containing a suspension of 1×10^7 cells/mouse of live MDA-MB-231 tumor cells. […] Twenty-eight days following inoculation, thirty-two mice with tumor sizes of 101-124 mm^3 were randomized into four groups of eight mice, each with a mean tumor size of 114 mm^3. Tumor volumes and body weights were recorded when the mice were randomized and were taken twice weekly thereafter. Clinical observations were made daily. Dosing was performed via intraperitoneal injection for vehicle control and plinabulin and administered via oral gavage for abemaciclib as described below in Table 1. Plinabulin was administered one hour post dose of abemaciclib on combined dosing days. [table] […] All mice are included in the TGI calculations. [formula] All statistical analyses in the xenograft study are performed with GraphPad Prism software. p≤0.05 was considered statistically significant. […] A two-tailed Student's t-test with Welch's correction was also used to verify any differences between each group and the vehicle control, as well as single agents and their respective combination groups.

**Q.** With CCN1CCN(Cc2ccc(Nc3ncc(F)c(-c4cc(F)c5nc(C)n(C(C)C)c5c4)n3)nc2)CC1 [abemaciclib] as the molecule, how does the “TGI (tumor growth inhibition) compared to the Vehicle Control group” value read?
**A.** 59%

**Q.** And the mean tumor volume?
**A.** 572±101 mm^3

**Q.** With CC(C)(C)c1[nH]cnc1/C=c1\[nH]c(=O)/c(=C/c2ccccc2)[nH]c1=O [plinabulin, (3Z,6Z)-3-benzylidene-6-{[5-(2-methyl-2-propanyl)-1H-imidazol-4-yl]methylene}-2,5-piperazinedione] as the molecule, how does the “TGI (tumor growth inhibition) compared to the Vehicle Control group” value read?
**A.** 26%

**Q.** And the mean tumor volume?
**A.** 942±114 mm^3
